Some results are limits rather than exact numbers.

Experimental findings from patent US11535621B2, “Heterobicyclic amides as inhibitors of CD38” (Ribon Therapeutics, Inc., priority 2019, dated 2022) are described below.

The target of this assay is Human CD38 (Homo sapiens (Human), UniProt P28907). In words: CD38 enzyme assay. In kind it is biochemical. Particulars: 2 nM CD38, NAD+ substrate, absorbance at 405 nm. An excerpt: [formula] where SUBcmpd is the subtracted value for the individual compound treated well, SUBmin is the average of the subtracted values of the 4-(((1r,4r)-4-(2-methoxyethoxy)cyclohexyl)amino)-1-methyl-6-(thiazol-5-yl)quinolin-2(1H)-one positive control wells and SUBmax is the average of the subtracted values of the DMSO negative control wells.
Chain of Human CD38 (P28907 whole entry): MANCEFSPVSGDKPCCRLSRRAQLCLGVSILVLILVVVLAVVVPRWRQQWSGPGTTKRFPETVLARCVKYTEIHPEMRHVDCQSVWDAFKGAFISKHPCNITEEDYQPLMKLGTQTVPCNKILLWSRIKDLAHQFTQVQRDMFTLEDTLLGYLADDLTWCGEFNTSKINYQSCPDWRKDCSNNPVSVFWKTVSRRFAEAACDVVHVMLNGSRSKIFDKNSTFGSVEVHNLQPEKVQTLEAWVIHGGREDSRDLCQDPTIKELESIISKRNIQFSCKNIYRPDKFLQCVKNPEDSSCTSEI
The % inhibition values were plotted as a function of compound concentration and the following 4-parameter fit was applied to derive the IC50 values:
[formula] where top and bottom are normally allowed to float, but may be fixed at 100 or 0 respectively in a 3-parameter fit. The Hill Coefficient is normally allowed to float but may also be fixed at 1 in a 3-parameter fit. Y is the % inhibition and X is the compound concentration.
Regarding `O=C(NCc1c(F)cccc1C(F)(F)F)c1cc(-c2cncs2)cc2cc[nH]c12` [Example 31, N-(2-Fluoro-6-(trifluoromethyl)benzyl)-5-(thiazol-5-yl)-1H-indole-7-carboxamide], the IC50 (usually the concentration needed to halve the response being measured) lay within 10 to 100 nM.

As to `COCCO[C@H]1CC[C@H](NC(=O)c2nc(-c3cncs3)nc3cc[nH]c23)CC1` [Example 32, N-((1r,4r)-4-(2-Methoxyethoxy)cyclohexyl)-2-(thiazol-5-yl)-5H-pyrrolo[3,2-d]pyrimidine-4-carboxamide], the IC50 lay in the range of 10 to 100 nM.

Consider `O=C(NCc1c(F)cccc1C(F)(F)F)c1nc(-c2cncs2)cc2nc[nH]c12` [Example 33, N-(2-Fluoro-6-(trifluoromethyl)benzyl)-6-(thiazol-5-yl)-3I-imidazo[4,5-c]pyridine-4-carboxamide], for which the half-maximal inhibitory concentration (IC50) was greater than 1000 nM.

Compound `COCCO[C@H]1CC[C@H](NC(=O)c2nc(-n3ccnc3C)nc3cc[nH]c23)CC1` [Example 34, N-((1r,4r)-4-(2-Methoxyethoxy)cyclohexyl)-2-(2-methyl-1H-imidazol-1-yl)-5H-pyrrolo[3,2-d]pyrimidine-4-carboxamide] gave an IC50 greater than 1000 nM.

Compound `COCCO[C@H]1CC[C@H](NC(=O)c2nc(-c3cn[nH]n3)nc3cc[nH]c23)CC1` [Example 35, N-((1r,4r)-4-(2-Methoxyethoxy)cyclohexyl)-2-(2H-1,2,3-triazol-4-yl)-5H-pyrrolo[3,2-d]pyrimidine-4-carboxamide] gave an IC50 greater than 1000 nM.

In turn, `COCCO[C@H]1CC[C@H](NC(=O)c2nc(-n3cncc3C)nc3cc[nH]c23)CC1` [Example 36, N-((1r,4r)-4-(2-Methoxyethoxy)cyclohexyl)-2-(5-methyl-1H-imidazol-1-yl)-5H-pyrrolo[3,2-d]pyrimidine-4-carboxamide] had a 50% inhibitory concentration (IC50) of 10 to 100 nM.

In turn, `COCCO[C@H]1CC[C@H](NC(=O)c2nc(-n3cnc(C)c3)nc3cc[nH]c23)CC1` [Example 37, N-((1r,4r)-4-(2-methoxyethoxy)cyclohexyl)-2-(4-methyl-1H-imidazol-1-yl)-5H-pyrrolo[3,2-d]pyrimidine-4-carboxamide] displayed a half-maximal inhibitory concentration (IC50) greater than 1000 nM.

`COCCO[C@H]1CC[C@H](NC(=O)c2nc(-c3c[nH]cn3)nc3cc[nH]c23)CC1` [Example 38, 2-(1H-Imidazol-4-yl)-N-((1r,4r)-4-(2-methoxyethoxy)cyclohexyl)-5H-pyrrolo[3,2-d]pyrimidine-4-carboxamide] displayed an IC50 greater than 1000 nM.

`O=C(N[C@H]1CC[C@@H](C(F)(F)F)CC1)c1nc(-n2ccnc2)nc2cc[nH]c12` [Example 39a, 2-(1H-Imidazol-1-yl)-N-((1s,4s)-4-(trifluoromethyl)cyclohexyl)-5H-pyrrolo[3,2-d]pyrimidine-4-carboxamide] yielded a half-inhibitory concentration (IC50) of less than 10 nM.

As for `O=C(N[C@H]1CC[C@H](C(F)(F)F)CC1)c1nc(-n2ccnc2)nc2cc[nH]c12` [Example 39b, 2-(1H-imidazol-1-yl)-N-((1r,4r)-4-(trifluoromethyl)cyclohexyl)-5H-pyrrolo[3,2-d]pyrimidine-4-carboxamide], the half-maximal inhibitory concentration (IC50) was less than 10 nM.

In the case of `COCCO[C@H]1CC[C@H](NC(=O)c2cc(-n3ccnc3)cc3cnsc23)CC1` [Example 41, 5-(1H-Imidazol-1-yl)-N-((1r,4r)-4-(2-methoxyethoxy)cyclohexyl)benzo[d]isothiazole-7-carboxamide], the IC50 was in the range of 100 to 1000 nM.

In turn, `Cc1nc2cc(-n3ccnc3)cc(C(=O)NCc3c(F)cccc3C(F)(F)F)c2[nH]1` [Example 42, N-(2-Fluoro-6-(trifluoromethyl)benzyl)-5-(1H-imidazol-1-yl)-2-methyl-1H-benzo[d]imidazole-7-carboxamide] displayed an IC50 of 100 to 1000 nM.

`O=C(NCc1c(F)cccc1C(F)(F)F)c1nc(-c2cncs2)nc2cc[nH]c12` [Example 43, N-(2-Fluoro-6-(trifluoromethyl)benzyl)-2-(thiazol-5-yl)-5H-pyrrolo[3,2-d]pyrimidine-4-carboxamide] returned a half-maximal inhibitory concentration (IC50) of 100 to 1000 nM.

`O=C(NCc1c(F)cccc1C(F)(F)F)c1cc(-n2ccnc2)nc2cc[nH]c12` [Example 44, N-(2-Fluoro-6-(trifluoromethyl)benzyl)-5-(1H-imidazol-1-yl)-1H-pyrrolo[3,2-b]pyridine-7-carboxamide] had a half-maximal inhibitory concentration (IC50) of 10 to 100 nM.

The compound `COCCO[C@H]1CC[C@H](NC(=O)c2cc(-c3cncs3)cc3cc(C)[nH]c23)CC1` [Example 45, N-((1r,4r)-4-(2-Methoxyethoxy)cyclohexyl)-2-methyl-5-(thiazol-5-yl)-1H-indole-7-carboxamide] showed an IC50 of 100 to 1000 nM.

Regarding `O=C(NCc1c(F)cccc1C(F)(F)F)c1nc(-n2ccnc2)nc2nc[nH]c12` [Example 46, N-(2-Fluoro-6-(trifluoromethyl)benzyl)-2-(1H-imidazol-1-yl)-7H-purine-6-carboxamide], the IC50 lay within 10 to 100 nM.

`COCCO[C@H]1CC[C@H](NC(=O)c2nc(-c3cncs3)cc3nc[nH]c23)CC1` [Example 47, N-((1r,4r)-4-(2-Methoxyethoxy)cyclohexyl)-6-(thiazol-5-yl)-3H-imidazo[4,5-c]pyridine-4-carboxamide] returned an IC50 greater than 1000 nM.

In turn, `O=C(NCc1c(F)cccc1C(F)(F)F)c1nc(-n2ccnc2)cc2cn[nH]c12` [Example 48, N-(2-Fluoro-6-(trifluoromethyl)benzyl)-5-(1H-imidazol-1-yl)-1H-pyrazolo[3,4-c]pyridine-7-carboxamide] came in with an IC50 of 10 to 100 nM.

Consider `O=C(NCc1c(F)cccc1C(F)(F)F)c1nc(-n2ccnc2)nc2ccsc12` [Example 49, N-(2-Fluoro-6-(trifluoromethyl)benzyl)-2-(1H-imidazol-1-yl)thieno[3,2-d]pyrimidine-4-carboxamide], for which the half-inhibitory concentration (IC50) was 10 to 100 nM.

Regarding `COCCO[C@H]1CC[C@H](NC(=O)c2nc(-c3cncs3)nc3ccsc23)CC1` [Example 50, N-((1r,4r)-4-(2-Methoxyethoxy)cyclohexyl)-2-(thiazol-5-yl)thieno[3,2-d]pyrimidine-4-carboxamide], the 50% inhibitory concentration (IC50) is 10 to 100 nM.

Compound `O=C(NCc1c(F)cccc1C(F)(F)F)c1nc(-n2ccnc2)nc2cc[nH]c12` [Example 51, N-(2-Fluoro-6-(trifluoromethyl)benzyl)-2-(1H-imidazol-1-yl)-5H-pyrrolo[3,2-d]pyrimidine-4-carboxamide] displayed a half-inhibitory concentration (IC50) of 10 to 100 nM.

Take `O=C(NC1CCN(CC(F)(F)F)CC1)c1nc(-n2ccnc2)nc2cc[nH]c12` [Example 52, 2-(1H-Imidazol-1-yl)-N-(1-(2,2,2-trifluoroethyl)piperidin-4-yl)-5H-pyrrolo[3,2-d]pyrimidine-4-carboxamide]: the IC50 was 10 to 100 nM.

As to `COCCN1CCC(NC(=O)c2nc(-n3ccnc3)nc3cc[nH]c23)CC1` [Example 53, 2-(1H-Imidazol-1-yl)-N-(1-(2-methoxyethyl)piperidin-4-yl)-5H-pyrrolo[3,2-d]pyrimidine-4-carboxamide], the IC50 was 100 to 1000 nM.

With `O=C(NC1CCNCC1)c1nc(-n2ccnc2)nc2cc[nH]c12` [Example 54, 2-(1H-Imidazol-1-yl)-N-(piperidin-4-yl)-5H-pyrrolo[3,2-d]pyrimidine-4-carboxamide], the IC50 was greater than 1000 nM.

Compound `O=C(NC1CCN(CCC(F)(F)F)CC1)c1nc(-n2ccnc2)nc2cc[nH]c12` [Example 55, 2-(1H-Imidazol-1-yl)-N-(1-(3,3,3-trifluoropropyl)piperidin-4-yl)-5H-pyrrolo[3,2-d]pyrimidine-4-carboxamide] returned a half-inhibitory concentration (IC50) of 10 to 100 nM.

Compound `COCCN[C@H]1CC[C@H](NC(=O)c2nc(-n3ccnc3)nc3cc[nH]c23)CC1` [Example 56, 2-(1H-Imidazol-1-yl)-N-((1r,4r)-4-((2-methoxyethyl)amino)cyclohexyl)-5H-pyrrolo[3,2-d]pyrimidine-4-carboxamide] displayed a concentration for half-maximal inhibition (IC50) of 10 to 100 nM.

On to `COCCN(C)[C@H]1CC[C@H](NC(=O)c2nc(-n3ccnc3)nc3cc[nH]c23)CC1` [Example 57, 2-(1H-Imidazol-1-yl)-N-((1r,4r)-4-((2-methoxyethyl)(methyl)amino)cyclohexyl)-5H-pyrrolo[3,2-d]pyrimidine-4-carboxamide], for which the concentration for half-maximal inhibition (IC50) lay within 10 to 100 nM.

For the compound `CO[C@H]1CC[C@H](NC(=O)c2nc(-n3ccnc3)nc3cc[nH]c23)CC1` [Example 58, 2-(1H-Imidazol-1-yl)-N-((1r,4r)-4-methoxycyclohexyl)-5H-pyrrolo[3,2-d]pyrimidine-4-carboxamide], the IC50 is less than 10 nM.

`O=C(NC1CCCCC1)c1nc(-n2ccnc2)nc2cc[nH]c12` [Example 59, N-cyclohexyl-2-(1H-Imidazol-1-yl)-5H-pyrrolo[3,2-d]pyrimidine-4-carboxamide] returned an IC50 of less than 10 nM.

Take `CN1CCC(NC(=O)c2nc(-n3ccnc3)nc3cc[nH]c23)CC1` [Example 60, 2-(1H-Imidazol-1-yl)-N-(1-methylpiperidin-4-yl)-5H-pyrrolo[3,2-d]pyrimidine-4-carboxamide]: the concentration for half-maximal inhibition (IC50) is greater than 1000 nM.

On to `O=C(NC1CCS(=O)(=O)CC1)c1nc(-n2ccnc2)nc2cc[nH]c12` [Example 61, N-(1,1-Dioxidotetrahydro-2H-thiopyran-4-yl)-2-(1H-imidazol-1-yl)-5H-pyrrolo[3,2-d]pyrimidine-4-carboxamide], for which the IC50 lay within 10 to 100 nM.

The compound `O=C(NC1CCOCC1)c1nc(-n2ccnc2)nc2cc[nH]c12` [Example 62, 2-(1H-Imidazol-1-yl)-N-(tetrahydro-2H-pyran-4-yl)-5H-pyrrolo[3,2-d]pyrimidine-4-carboxamide] came in with an IC50 of 10 to 100 nM.

In turn, `COCCOc1ccc(NC(=O)c2nc(-n3ccnc3)nc3cc[nH]c23)cc1` [Example 63, 2-(1H-Imidazol-1-yl)-N-(4-(2-methoxyethoxy)phenyl)-5H-pyrrolo[3,2-d]pyrimidine-4-carboxamide] yielded an IC50 of less than 10 nM.

`CC(=O)N1CCC(NC(=O)c2nc(-n3ccnc3)nc3cc[nH]c23)CC1` [Example 64, N-(1-Acetylpiperidin-4-yl)-2-(1H-imidazol-1-yl)-5H-pyrrolo[3,2-d]pyrimidine-4-carboxamide] returned a concentration for half-maximal inhibition (IC50) of 10 to 100 nM.
